Source: the CheMixHub viscosity set

Assay: xn = mol fraction of the nth substance listed

CCNCCO + O
viscosity [mPa·s]
Conditions | 293.15 K | 298.15 K | 303.15 K | 308.15 K | 313.15 K | 318.15 K | 323.15 K
100 kPa, x2 = 0.55 | 32.2 | – | 18.1 | – | 10.9 | – | 6.98
101 kPa, x1 = 0.0499 | – | – | 1.968 | – | – | – | –
101 kPa, x1 = 0.0998 | – | – | 3.824 | – | – | – | –
101 kPa, x1 = 0.1506 | – | – | 6.179 | – | – | – | –
101 kPa, x1 = 0.2011 | – | – | 8.652 | – | – | – | –
101 kPa, x1 = 0.2982 | – | – | 13.25 | – | – | – | –
101 kPa, x1 = 0.4029 | – | – | 17.07 | – | – | – | –
101 kPa, x1 = 0.4458 | – | – | 17.98 | – | – | – | –
101 kPa, x1 = 0.5051 | – | – | 18.79 | – | – | – | –
101.3 kPa, x1 = 0.0481 | 2.723 | – | 1.934 | – | 1.422 | – | 1.093
101.3 kPa, x1 = 0.0797 | 4.52 | 3.7 | 3.05 | 2.56 | 2.18 | 1.86 | 1.62
101.3 kPa, x1 = 0.1001 | 7.45 | – | 4.82 | – | 2.74 | – | 2
101.3 kPa, x1 = 0.119 | 7.315 | – | 4.617 | – | 3.122 | – | 2.225
101.3 kPa, x1 = 0.168 | 11.94 | 9.26 | 7.3 | 5.85 | 4.78 | 3.96 | 3.34
101.3 kPa, x1 = 0.2 | – | – | 9.31 | – | 5.5 | – | 3.68
101.3 kPa, x1 = 0.233 | 17.55 | – | 10.33 | – | 6.544 | – | 4.39
101.3 kPa, x1 = 0.3001 | 23.16 | – | 13.36 | – | 8.19 | – | 5.2
101.3 kPa, x1 = 0.4002 | 28.88 | – | 16.31 | – | 10.32 | – | 6.29
101.3 kPa, x1 = 0.447 | 31.75 | – | 17.94 | – | 10.85 | – | 6.977
101.3 kPa, x1 = 0.5 | – | – | 17.86 | – | 11.49 | – | 6.88
101.3 kPa, x1 = 0.6001 | 31.42 | – | 17.96 | – | 11.66 | – | 7.05
101.3 kPa, x1 = 0.7 | 28.21 | – | 16.61 | – | 10.91 | – | 6.74
101.3 kPa, x1 = 0.8002 | 23.04 | – | 14.28 | – | 9.46 | – | 6.18
101.3 kPa, x1 = 0.9001 | 17.51 | – | 11.45 | – | 7.8 | – | 5.19
101.3 kPa, x2 = 0.3547 | 30.01 | – | – | – | 10.6 | – | 6.882
101.33 kPa, x1 = 0.019 | 1.537 | 1.336 | 1.172 | 1.038 | 0.927 | 0.833 | 0.755
101.33 kPa, x1 = 0.0419 | 2.508 | 2.112 | 1.804 | 1.559 | 1.362 | 1.201 | 1.068
101.33 kPa, x1 = 0.0686 | 3.671 | 3.152 | 2.613 | 2.222 | 1.896 | 1.643 | 1.438
101.33 kPa, x1 = 0.1 | 5.847 | 4.671 | 3.798 | 3.14 | – | 2.241 | 1.934
